# Data published in patent US11040041B2, “Method of treating pulmonary arterial hypertension” (Cipla (UK) Limited, priority 2015, dated 2021).
# Legend:
# [1] = tested on: rats with monocrotaline induced pulmonary arterial hypertension; assay: Hemodynamic evaluation in anesthetized rats treated with monocrotaline to induce pulmonary arterial hypertension; format: in vivo, Sprague-Dawley rats; conditions: 3.25 mg/kg dosing (so in the source), after 28 days
# [2] = tested on: rats with monocrotaline induced pulmonary arterial hypertension; assay: as above; format: in vivo, Sprague-Dawley rats; conditions: for RV/LV + S: Fulton's Index; for RV/LV + S / Body Weight / HR / HW/BW / Heart Wt / LV Wt / Lung Wt / MAP / Mean PAP / RV Wt / RV/BW / Systolic PAP: day 28 after monocrotaline, mean ± SEM
# Experimental: The studies were conducted for Hemodynamic Evaluation of Paliperidone palmitate in Anesthetized Sprague Dawley Rats Treated with Monocrotaline to Induce Pulmonary Arterial Hypertension. Sildenafil was used as an internal control to compare the effects of Paliperidone palmitate.
# Adult male Sprague-Dawley rats (287±4 g) were obtained from Charles River Laboratories (Raleigh, N.C.). Animals housed individually in a temperature/humidity controlled room with 12-hour light/dark cycles, had free access to water and food and were acclimated for one week prior to the study. Rats were randomly assigned (n=10 per group). Rats in groups 1 and 2 served as healthy controls; the remaining rats were injected subcutaneously on Day 0 with 60 mg/kg body weight monocrotaline, the toxic alkaloid of Crotalaria spectabilis, (dissolved in DMSO at a concentration of 60 mg/ml, Sigma Aldrich, St. Louis, Mo.). On days 1-21, the rats were dosed via oral gavage (2 ml/kg) with vehicle (PBS), or the test compound—Paliperidone palmitate. Rats were weighed daily, and the dosages of test compound adjusted appropriately.
# Monocrotaline (MCT) is an 11-membered macrocyclic pyrrolizidine plant alkaloid. A single SQ injection into rats results in hepatic generation of toxic metabolite—MCT pyrrole. Phase II metabolism of MCT is through glutathione conjugation. Reactive metabolite is transported to lungs, injuring pulmonary vasculature.
# The effects of sildenafil and Paliperidone palmitate were evaluated in rats with monocrotaline induced pulmonary arterial hypertension. Male Sprague-Dawley rats were orally administered vehicle, Paliperidone palmitate (1.25 or 3.75 mg/kg, once every day for 28 days starting on Day 1, or sildenafil (30 mg/kg, administered twice daily) (n=10 in each group). Rats received a single injection of monocrotaline (60 mg/kg, s.c.) on Study Day 1. On the twenty-eighth day following monocrotaline dosing, the rats were anesthetized with ketamine/xylazine for terminal monitoring of pulmonary and systemic arterial pressures along with heart rate.
# The Table 1 gives the study design for the test article and vehicle administrations.
# [3] = Paliperidone palmitate 1.25 mg/kg oral once daily
# [4] = Paliperidone palmitate 3.75 mg/kg oral once daily
# [5] = after 28 days, monocrotaline rats
# [6] = Sildenafil 60 mg/kg/day bid oral
structure (smiles),measurement,setting,value
"CCCCCCCCCCCCCCCC(=O)OC1CCCn2c1nc(C)c(CCN1CCC(c3noc4cc(F)ccc34)CC1)c2=O (stereo not shown) [Paliperidone palmitate, Hexadecanoic acid 3-[2-[4-(6-fluoro-1,2-benzisoxazol-3-yl)piperidin-1-yl]ethyl]-2-methyl-4-oxo-6,7,8,9-tetrahydro-4H-pyri do[1,2-a]pyrimidin-9-yl ester]",reduction in systolic pulmonary arterial pressure compared to the vehicle group,[1],20%
same,reduction in systolic pulmonary arterial pressure compared to the vehicle group,"[2]; 1.25 mg/kg dosing, after 28 days, monocrotaline rats",25%
same,"right ventricular hypertrophy (RV/LV+S, Fulton's Index) change compared to vehicle","[2]; 1.25 mg/kg, after 28 days, monocrotaline rats",−12%
same,"right ventricular hypertrophy (RV/LV+S, Fulton's Index) change compared to vehicle","[2]; 3.75 mg/kg, after 28 days, monocrotaline rats",−7%
same,RV/LV + S,[2]; [3],0.52 ± 0.04
same,RV/LV + S,[2]; [4],0.55 ± 0.06
same,Body Weight,[2]; [3],0.33 ± 0.02 kg
same,HR,[2]; [3],253 ± 36 bpm
same,HW/BW,[2]; [3],3.94 ± 0.22
same,Heart Wt,[2]; [3],1.28 ± 0.03 g
same,LV Wt,[2]; [3],0.77 ± 0.01 g
same,Lung Wt,[2]; [3],2.59 ± 0.13 g
same,MAP,[2]; [3],54 ± 9 mm Hg
same,Mean PAP,[2]; [3],34 ± 1 mm Hg
same,RV Wt,[2]; [3],0.39 ± 0.02 g
same,RV/BW,[2]; [3],1.22 ± 0.10
same,Systolic PAP,[2]; [3],45 ± 3 mm Hg
same,Body Weight,[2]; [4],0.33 ± 0.02 kg
same,HR,[2]; [4],312 ± 12 bpm
same,HW/BW,[2]; [4],3.92 ± 0.21
same,Heart Wt,[2]; [4],1.28 ± 0.06 g
same,LV Wt,[2]; [4],0.73 ± 0.03 g
same,Lung Wt,[2]; [4],2.23 ± 0.04 g
same,MAP,[2]; [4],68 ± 5 mm Hg
same,Mean PAP,[2]; [4],39 ± 3 mm Hg
same,RV Wt,[2]; [4],0.40 ± 0.03 g
same,RV/BW,[2]; [4],1.22 ± 0.12
same,Systolic PAP,[2]; [4],48 ± 3 mm Hg
same,differences in heart rate compared to vehicle,[2]; [5],No substantive differences
same,differences in mean arterial pressure compared to vehicle,[2]; [5],No substantive differences
same,"decrease in hypertrophy, RV (wt) corrected by body weight","[2]; at either dose (1.25 or 3.75 mg/kg), after 28 days, monocrotaline rats",19%
same,development of PAH in the rat monocrotaline (MCT) model,"[2]; daily oral doses, text says three weeks",prevent the development of PAH
CCCc1nn(C)c2c(=O)[nH]c(-c3cc(S(=O)(=O)N4CCN(C)CC4)ccc3OCC)nc12 [Sildenafil],RV/LV + S,[2]; [6],0.51 ± 0.03
same,Body Weight,[2]; [6],0.32 ± 0.01 kg
same,HR,[2]; [6],278 ± 21 bpm
same,HW/BW,[2]; [6],3.89 ± 0.17
same,Heart Wt,[2]; [6],1.24 ± 0.02 g
same,LV Wt,[2]; [6],0.74 ± 0.02 g
same,Lung Wt,[2]; [6],2.36 ± 0.13 g
same,MAP,[2]; [6],69 ± 5 mm Hg
same,Mean PAP,[2]; [6],38 ± 6 mm Hg
same,RV Wt,[2]; [6],0.38 ± 0.02 g
same,RV/BW,[2]; [6],1.19 ± 0.09
same,Systolic PAP,[2]; [6],46 ± 7 mm Hg
same,differences in heart rate compared to vehicle,[2]; [5],No substantive differences
same,differences in mean arterial pressure compared to vehicle,[2]; [5],No substantive differences
same,"decrease in hypertrophy, RV (wt) corrected by body weight","[2]; sildenafil (30 mg/kg twice daily), after 28 days, monocrotaline rats",21%
same,"right ventricular hypertrophy (RV/LV+S, Fulton's Index) change compared to vehicle","[2]; sildenafil cohort (30 mg/kg twice daily), after 28 days, monocrotaline rats",−14%
same,reduction of SPAP compared to the vehicle group,"[2]; sildenafil group (30 mg/kg twice daily), after 28 days, monocrotaline rats",23%
